# Measured values taken from patent US20060040870A1, “Enhancement of apoptosis by caspase-9 inhibitors” (priority 2004, published 2006).
# The star is where a group is joined. Cbz = O=C(OCc1ccccc1)*; CH2F = FC*
# Assays:
# [1] = test system: NALM-6 cells; assay: Apoptosis by Annexin V staining and flow cytometry, NALM-6; type: cell-based; conditions: NALM-6, 50 μM, 18 hours
# Procedure: (§1) FIG. 4 is a pair of graphs showing the effect of […] on various cell lines, as determined by Annexin V staining and flow cytometry. The cells included the B-cell precursor ALL cell lines […], and NALM-6, the RAMOS, RAJI, and DAUDI Burkitt lymphoma cell lines, the CCRF-CEM, JURKAT, and H9 T lymphoma cell lines, the K-562 erythroleukemia cell line, and resting or activated (i.e., CD3/CD28 cross-linked) normal human T cells. […] Flow cytometry. Quantitation of apoptotic events was conducted using a FACS Calibur (BD Immunocytometry Systems). All analyses were conducted on cells with lymphoid light scatter characteristics (i.e., low to medium forward scatter and low 90° side scatter). iii. Annexin V. […] Cells were stained according to the manufacturers recommendations.
# [2] = test system: leukemia/lymphoma cells; assay: Pro-apoptotic activity of caspase inhibitor sequences (Table 2); type: cell-based; set-up: key: “−” is no activity; ++++ is maximum activity
# Excerpt: Caspases are constitutively express in cells, and are usually in their pro-form. In response to an incident, such as irradiation or chemotherapy, the pro-form of the caspase is converted into the activated state. Certain compounds are known that can inhibit caspases. For example, the pan-caspase (PCi) VAD can block all caspases. […] For example, C2i inhibits caspase-2. This particular inhibitor is very dose dependent.
# [3] = test system: K-562 erythroleukemia cell line; assay: Apoptosis by Annexin V staining and flow cytometry, K-562; type: cell-based; conditions: K-562, 50 μM, 18 hours
# Procedure: as §1
# [4] = test system: RAMOS Burkitt lymphoma cell line; assay: Apoptosis by Annexin V staining and flow cytometry, RAMOS; type: cell-based, human; conditions: 50 μM, 18 hours
# [5] = test system: CD33+ myeloid cells; assay: Annexin V staining of sorted cord blood-derived CD33+ myeloid cells removed from MS-5 stroma; type: cell-based, human; conditions: cultured 18 hours, DMSO control 27.9 ± 3.9, Time 0 <10
# [6] = test system: BLIN-4L cells; assay: Apoptosis by Annexin V staining and flow cytometry, BLIN-4L; type: cell-based, human; conditions: 50 μM
# Procedure: Flow cytometry. Quantitation of apoptotic events was conducted using a FACS Calibur (BD Immunocytometry Systems). All analyses were conducted on cells with lymphoid light scatter characteristics (i.e., low to medium forward scatter and low 90° side scatter).
# iii. Annexin V. FITC-labeled Annexin V (BD Pharmingen, San Diego, Calif.) was used to detect external phosphatidylserine residues appearing on the external surface of early apoptotic cells (Koopman Blood. 1994;84:1415-1420). Cells were stained according to the manufacturers recommendations.
# General experimental strategy. BLIN cell lines were removed from fibroblast monolayers, washed once and resuspended to 7.5×10^5/ml in X-VIVO 10. Two hundred μL of resuspended cells were added to 96-well flat-bottom microtiter plates (ISC Bioexpress, Kaysville, Vt.), followed by 0.5-1.0 μL of caspase inhibitors in DMSO. An identical volume of DMSO alone was added to separate wells as a vehicle control. This final DMSO concentration of 0.25-0.5% vol/vol had no adverse affect on any of the BLIN cell lines. At the indicated times the entire content of individual wells was harvested and stained in the fluorescent protocols described above.
# The inventors carried out experiments to test the influence of specific amino acid substitutions on the proapoptotic activity Z-LEHD-fmk. […]
# [7] = test system: CD19+ B-cell precursors; assay: Annexin V staining of sorted cord blood-derived CD19+ B-cell precursors removed from MS-5 stroma; type: cell-based, human; conditions: cultured 18 hours, DMSO control 46.5 ± 1.4, Time 0 1.5
# Procedure: Normal B-lineage cells. CD19+ B-lineage cells were derived from CD34+ human cord blood stem cells plated on the murine stromal cell line MS-5 (Itoh Exp Hematol. 1989;17:145-153). MS-5 stromal cells were kindly provided by Dr. Paul Kincade (University of Oklahoma Medical Research Foundation), following permission from Professor K. John Mori (Niigata University, Japan). FACS-purified CD34+/CD38+/lineage—cord blood hematopoietic stem cells were plated onto confluent, non-irradiated MS-5 stromal cells in 96-well flat-bottom plates (200 cells/well) containing Minimal Essential Medium supplemented with 10% FBS. Stem cell factor and G-CSF were added at 10 ng/ml (twice weekly) to enhance the emergence of CD19+ B-lineage cells (Nishihara Eur J Immunol. 1998;28:855-864; Ohkawara Leukemia. 1998;12:764-771). […] Wells were then pooled, stained with PE-conjugated anti-CD 19 + propidium iodide (PI), and sorted on a FACSVantage (BD Immunocytometry Systems, San Jose, Calif.). Cord blood CD34+/CD38+/lineage—cells were provided by Valerie McCullar and Dr. Jeff Miller of the University of Minnesota Cancer Center in accordance with the University of Minnesota Institutional Review Board on Human Subjects.
# Flow cytometry. Quantitation of apoptotic events was conducted using a FACS Calibur (BD Immunocytometry Systems). […]
substance,measurement,setting,value
Z-LEHD-fmk (Cbz-LEHD-CH2F; SMILES CC(C)C[C@H](NC(=O)OCc1ccccc1)C(=O)N[C@@H](CCC(=O)O)C(=O)N[C@@H](Cc1c[nH]cn1)C(=O)N[C@@H](CC(=O)O)C(=O)CF) [C9i],sensitivity (fold-increase in Annexin V+ cells vs DMSO),[1],sensitive
same,Pro-apoptotic Activity (after 24 hours),[2],++++
same,sensitivity (fold-increase in Annexin V+ cells vs DMSO),[3],insensitive
same,sensitivity (fold-increase in Annexin V+ cells vs DMSO),[4],extremely sensitive
same,"percentage of total Annexin V+ cells (PI+ and PI−), mean ± SD",[5],22.3 ± 1.2%
same,apoptosis (Annexin V and TMRE staining) versus DMSO vehicle,"[6]; BLIN-4L removed from adherent fibroblasts, 2-hour time points up to 8 hours","promoted apoptosis in BLIN-4L, albeit not as pronounced as in BLIN-3"
same,sensitivity (fold-increase in Annexin V+ cells vs DMSO),"[6]; BLIN-4L, 18 hours",sensitive
same,"percentage of total Annexin V+ cells (PI+ and PI−), mean ± SD",[7],56.0 ± 3.2 %
